Results reported in patent publication US20260184708A1, “PYRIDAZINONES AND METHODS OF USE THEREOF” (GFB (ABC), LLC, priority 2017, published 2026).
Read-outs that look alike come from different tables or passages of the source.

Biological target: T1, TRPC5 (Homo sapiens, UniProt Q9UL62)
T1 construct: expressed in transfected cells; host or cells: HEK 293
T1 sequence (Q9UL62 1-973): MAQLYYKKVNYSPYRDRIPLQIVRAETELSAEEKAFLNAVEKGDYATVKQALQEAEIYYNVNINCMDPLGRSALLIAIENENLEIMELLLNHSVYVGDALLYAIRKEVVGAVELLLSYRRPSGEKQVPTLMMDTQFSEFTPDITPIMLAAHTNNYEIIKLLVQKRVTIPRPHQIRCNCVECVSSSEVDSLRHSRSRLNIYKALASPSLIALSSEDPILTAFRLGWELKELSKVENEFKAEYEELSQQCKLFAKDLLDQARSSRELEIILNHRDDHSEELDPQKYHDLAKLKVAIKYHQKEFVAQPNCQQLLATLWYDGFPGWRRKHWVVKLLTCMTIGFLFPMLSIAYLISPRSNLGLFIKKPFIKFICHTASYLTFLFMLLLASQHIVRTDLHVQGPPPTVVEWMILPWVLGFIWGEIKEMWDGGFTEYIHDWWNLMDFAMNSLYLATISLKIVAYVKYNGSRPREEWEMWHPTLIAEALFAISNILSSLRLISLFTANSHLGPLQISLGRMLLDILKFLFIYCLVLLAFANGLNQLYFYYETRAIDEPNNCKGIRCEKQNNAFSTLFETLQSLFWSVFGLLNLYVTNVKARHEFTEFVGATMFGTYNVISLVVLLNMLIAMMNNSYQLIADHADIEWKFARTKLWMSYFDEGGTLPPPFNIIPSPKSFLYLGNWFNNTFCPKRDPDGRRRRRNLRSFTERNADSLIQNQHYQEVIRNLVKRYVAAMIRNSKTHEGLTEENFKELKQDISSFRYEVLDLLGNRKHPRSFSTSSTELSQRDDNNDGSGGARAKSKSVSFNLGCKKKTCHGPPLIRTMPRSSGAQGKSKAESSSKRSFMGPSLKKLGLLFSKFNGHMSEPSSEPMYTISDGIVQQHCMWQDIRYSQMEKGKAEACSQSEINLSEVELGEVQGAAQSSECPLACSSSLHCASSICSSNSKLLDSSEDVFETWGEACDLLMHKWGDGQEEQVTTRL
Assay: TRPC5 automated patch clamp assay (Qpatch), current block after rosiglitazone stimulation
Type: cell-based
Protocol: HEK 293 cells expressing human TRPC5 were harvested, re-suspended in serum free medium, and added to the automated platform and used within 2-3 hours. Internal and external physiological solutions were freshly prepared prior to the assay. The external solution contained: 145 mM NaCl, 4 mM KCl, 2 mM CaCl2), 1 mM MgCl2, 10 mM HEPES, 10 mM glucose, pH 7.4 with NaOH and 300 mOsm/L. The internal solution contained 120 mM L-aspartic acid, 120 mM CsOH·H2O, 20 mM CsCl, 2 mM MgCl2, 8.8 mM CaCl2), 10 mM EGTA, 10 mM HEPES, 10 mM Glucose, 0.1 mM GTP and 2 mM Na2ATP; pH 7.2 with CsOH and 290 mOsm/L. The free internal Ca2+ concentration was buffered to 1 μM.
The automated electrophysiological platform QPatch 16 from Sophion (Denmark) was used to carry out the compounds profiling. The series resistance and quality of seals were continuously monitored during the experiments. Data was analyzed using Sophion QPatch assay software 5.6 (Odense). IC50 values were calculated using a least squares regression algorithm (Hill equation).
To monitor the ion currents, a voltage ramp from −100 mV to +100 mV, over 300 ms, was applied every 10 seconds, from a holding potential of −60 mV.
After recording for a minimum of 60 seconds control period, Rosiglitazone (30 uM), was applied to activate the channel.

[1] = HEK293 cells overexpressing TRPC5, rosiglitazone stimulation, 80 mV, read-out: TRPC5_QP XC50_80
[2] = HEK293 cells overexpressing TRPC5, rosiglitazone stimulation, 100 mV, read-out: TRPC5_QP XC50_100
[3] = Table 3, HEK293 cells overexpressing TRPC5, rosiglitazone stimulation, 80 mV, read-out: TRPC5_QP_ XC50_80
[4] = Table 3, HEK293 cells overexpressing TRPC5, rosiglitazone stimulation, 100 mV, read-out: TRPC5_QP_ XC50_100

Compound	IC50 [1]	IC50 [2]	IC50 [3]	IC50 [4]	also measured
O=c1[nH]ncc(N2CCC(Cc3ccccc3)CC2)c1Br	10 to 500 µM	10 to 500 µM	–	–	–
CN1CCN(c2cn[nH]c(=O)c2Br)CC1	10 to 500 µM	10 to 500 µM	–	–	–
O=c1[nH]ncc(N2CCN(CC3CCCCC3)CC2)c1Br	1 to 5 µM	1 to 5 µM	–	–	–
O=c1[nH]ncc(N2CCN(Cc3ccccc3)C3(CC3)C2)c1Br	10 to 500 µM	10 to 500 µM	–	–	–
Cc1ccccc1CN1CCN(c2cn[nH]c(=O)c2Br)CC12CC2	10 to 500 µM	10 to 500 µM	–	–	–
Cc1ccccc1CN1CC2CC(C1)N2c1cn[nH]c(=O)c1Br	10 to 500 µM	10 to 500 µM	–	–	–
O=c1[nH]ncc(N2C3CCC2CN(Cc2ccccc2)C3)c1Br	10 to 500 µM	10 to 500 µM	–	–	–
Cc1ccccc1CN1CC2CC1CN2c1cn[nH]c(=O)c1Br (centres unmarked)	–	–	10 to 500 µM	10 to 500 µM	–
O=c1[nH]ncc(N2CCCNCC2)c1Br	–	–	10 to 500 µM	10 to 500 µM	–
Cc1ccccc1CN1CC2CCC(C1)N2c1cn[nH]c(=O)c1Br	–	–	10 to 500 µM	10 to 500 µM	–
Cc1ccccc1CN1C2CC1CN(c1cn[nH]c(=O)c1Br)C2	–	–	10 to 500 µM	10 to 500 µM	–
O=c1[nH]ncc(N2CC3(CN(Cc4ccccc4)C3)C2)c1Br	–	–	10 to 500 µM	10 to 500 µM	–
Cc1ccccc1CN1CC2(C1)CN(c1cn[nH]c(=O)c1Br)C2	–	–	10 to 500 µM	10 to 500 µM	–
Cc1ccccc1CN1CCC2(C1)CN(c1cn[nH]c(=O)c1Br)C2	–	–	10 to 500 µM	10 to 500 µM	–
Cc1ccccc1CN1CC2(CCN(c3cn[nH]c(=O)c3Br)C2)C1	–	–	10 to 500 µM	10 to 500 µM	–
Cc1ccccc1CN1CCN(c2cn[nH]c(=O)c2C#CC(C)C)CC1=O	–	–	10 to 500 µM	10 to 500 µM	–
Cc1ccccc1CN1CCN(c2cn[nH]c(=O)c2C#CC2CC2)CC1=O	–	–	10 to 500 µM	10 to 500 µM	–

Compound	IC50 [1]	IC50 [2]	IC50 [3]	IC50 [4]	also measured
O=C1CN(c2cn[nH]c(=O)c2Br)CCN1CC1CCCCC1	–	–	1 to 5 µM	1 to 5 µM	–
Cc1ccccc1CN1CCN(c2cn[nH]c(=O)c2OC2CCCC2)CC1=O	–	–	5 to 10 µM	5 to 10 µM	–
COc1c(N2CCN(Cc3ccccc3C)C(=O)C2)cn[nH]c1=O	–	–	10 to 500 µM	10 to 500 µM	–
O=C1CN(c2cn[nH]c(=O)c2Br)CCN1Cc1ccc(F)cc1F	–	–	1 to 5 µM	1 to 5 µM	–
Cc1ccccc1CN1CCN(c2cn[nH]c(=O)c2-c2ccccc2)CC1=O	–	–	10 to 500 µM	10 to 500 µM	–
Cc1ccccc1CN1CCN(c2cn[nH]c(=O)c2C)CC1=O	–	–	5 to 10 µM	5 to 10 µM	–
Cc1ccccc1CN1CCN(c2cn[nH]c(=O)c2-c2ccccn2)CC1=O	–	–	10 to 500 µM	10 to 500 µM	–
CCS(=O)(=O)c1c(N2CCN(Cc3ccccc3C)C(=O)C2)cn[nH]c1=O	–	–	10 to 500 µM	10 to 500 µM	–
O=C1CN(c2cn[nH]c(=O)c2Cl)CCN1Cc1ccc(Cl)cc1F	–	–	5 to 10 µM	5 to 10 µM	–
Cc1ccccc1CN1CCN(c2cn[nH]c(=O)c2C2=CCOCC2)CC1=O	–	–	10 to 500 µM	10 to 500 µM	–
O=C1CN(c2cn[nH]c(=O)c2Cl)CCN1Cc1ccccc1C(F)(F)F	–	–	1e-05 to 1 µM	1e-05 to 1 µM	–
Cc1ccccc1CN1CCN(c2cn[nH]c(=O)c2N2CCOCC2)CC1=O	–	–	10 to 500 µM	10 to 500 µM	–
Cc1ccccc1CN1CCN(c2cn[nH]c(=O)c2C(F)(F)F)CC1=O	–	–	1 to 5 µM	5 to 10 µM	–
O=C1CN(c2cn[nH]c(=O)c2Cl)CCN1Cc1c(F)cccc1F	–	–	1 to 5 µM	1 to 5 µM	–
Cc1ccccc1CN1CCN(c2cn[nH]c(=O)c2C2CC2)CC1=O	–	–	–	–	IC50 (Table 4, HEK293 cells overexpressing TRPC5, rosiglitazone stimulation, 80 mV, read-out: TRPC5_QP_ XC50_80): 1 to 5 µM; IC50 (Table 4, HEK293 cells overexpressing TRPC5, rosiglitazone stimulation, 100 mV, read-out: TRPC5_QP_ XC50_100): 1 to 5 µM
O=c1[nH]ncc(N2CCc3c(ncn3Cc3cccc(C(F)(F)F)c3)C2)c1Cl	–	–	–	–	IC50: 1 to 5 µM

Continued, in another order:

IC50 [1]	IC50 [2]	IC50 [3]	IC50 [4]	Compound	also measured
1 to 5 µM	1 to 5 µM	–	–	Cc1ccccc1CN1CCN(c2cn[nH]c(=O)c2Br)CC1	–
10 to 500 µM	10 to 500 µM	–	–	Cc1ccccc1CN1CCN(c2cn[nH]c(=O)c2)CC1	–
1 to 5 µM	1 to 5 µM	–	–	Cc1ccccc1CN1CCN(c2c(Br)cn[nH]c2=O)CC1	–
5 to 10 µM	5 to 10 µM	–	–	O=c1[nH]ncc(N2CCN(Cc3ccccc3)CC2)c1Br	–
10 to 500 µM	10 to 500 µM	–	–	O=c1[nH]ncc(N2CCN(S(=O)(=O)c3ccccc3)CC2)c1Br	–
10 to 500 µM	10 to 500 µM	–	–	O=C(c1ccccc1)N1CCN(c2cn[nH]c(=O)c2Br)CC1	–
10 to 500 µM	10 to 500 µM	–	–	Cc1ccccc1S(=O)(=O)N1CCN(c2cn[nH]c(=O)c2Br)CC1	–
5 to 10 µM	5 to 10 µM	–	–	Cc1ccccc1C(=O)N1CCN(c2cn[nH]c(=O)c2Br)CC1	–
10 to 500 µM	10 to 500 µM	–	–	NC(=O)CN1CCN(c2cn[nH]c(=O)c2Br)CC1	–
1 to 5 µM	5 to 10 µM	–	–	CC(c1ccccc1)N1CCN(c2cn[nH]c(=O)c2Br)CC1 (centres unmarked)	–
1 to 5 µM	1 to 5 µM	–	–	Cc1cccc(C)c1CN1CCN(c2cn[nH]c(=O)c2Br)CC1	–
10 to 500 µM	10 to 500 µM	–	–	CS(=O)(=O)N1CCN(c2cn[nH]c(=O)c2Br)CC1	–
10 to 500 µM	10 to 500 µM	–	–	CN(C)C(=O)CN1CCN(c2cn[nH]c(=O)c2Br)CC1	–
5 to 10 µM	5 to 10 µM	–	–	Cc1ccccc1CN1CCCN(c2cn[nH]c(=O)c2Br)CC1	–
–	–	10 to 500 µM	10 to 500 µM	O=c1[nH]ncc(N2CCCN(Cc3ccccc3)CC2)c1Br	–
–	–	10 to 500 µM	10 to 500 µM	CC(C)(C)CN1CCN(c2cn[nH]c(=O)c2Br)CC1	–
–	–	1 to 5 µM	1 to 5 µM	Cc1cc(F)ccc1CN1CCN(c2cn[nH]c(=O)c2Br)CC1	–

IC50 [1]	IC50 [2]	IC50 [3]	IC50 [4]	Compound	also measured
–	–	5 to 10 µM	5 to 10 µM	Cn1nccc1CN1CCN(c2cn[nH]c(=O)c2Br)CC1	–
–	–	10 to 500 µM	10 to 500 µM	Cn1ccnc1CN1CCN(c2cn[nH]c(=O)c2Br)CC1	–
–	–	1 to 5 µM	1 to 5 µM	Cc1ccccc1C(C)N1CCN(c2cn[nH]c(=O)c2Br)CC1 (centres unmarked)	–
–	–	10 to 500 µM	10 to 500 µM	O=c1[nH]ncc(N2CCN(CC(F)(F)F)CC2)c1Br	–
–	–	1 to 5 µM	1 to 5 µM	O=c1[nH]ncc(N2CCN(Cc3cccc(C(F)(F)F)c3)CC2)c1Cl	–
–	–	1 to 5 µM	1 to 5 µM	O=c1[nH]ncc(N2CCN(Cc3ccccc3OC(F)(F)F)CC2)c1Br	–
–	–	1 to 5 µM	1 to 5 µM	Cc1ccccc1CN1CCN(c2cn[nH]c(=O)c2Cl)CC1	–
–	–	1 to 5 µM	1 to 5 µM	O=c1[nH]ncc(N2CCN(Cc3ccccc3OC(F)(F)F)CC2)c1Cl	–
–	–	5 to 10 µM	5 to 10 µM	Cc1ccccc1CN1CCN(c2cn[nH]c(=O)c2-c2ccccc2)CC1	–
–	–	1e-05 to 1 µM	1 to 5 µM	Cc1cc(F)ccc1CN1CCN(c2cn[nH]c(=O)c2Br)CC1=O	–
–	–	5 to 10 µM	10 to 500 µM	O=c1[nH]ncc(N2CCN(Cc3ccc(Cl)cc3F)CC2)c1Cl	–
–	–	1 to 5 µM	5 to 10 µM	O=c1[nH]ncc(N2CCN(Cc3ccc(F)cc3Cl)CC2)c1Cl	–
–	–	1 to 5 µM	1 to 5 µM	Cc1cc(F)ccc1CN1CCN(c2c(Cl)cn[nH]c2=O)CC1	–
–	–	5 to 10 µM	5 to 10 µM	O=c1[nH]ncc(N2CCN(Cc3ccc(F)cc3F)CC2)c1Cl	–
–	–	10 to 500 µM	10 to 500 µM	O=c1[nH]ncc(N2CCN(Cc3ccc(C(F)(F)F)cc3)CC2)c1Cl	–
–	–	1 to 5 µM	1 to 5 µM	O=c1[nH]ncc(N2CCN(Cc3c(F)cccc3F)CC2)c1Cl	–
